Reference: patent US9527856B2, “Oxindole compounds carrying a CO-bound spiro substituent and use thereof for treating vasopressin-related diseases” (AbbVie Deutschland GmbH & Co. KG, priority 2014, dated 2016)

Experiments:
[1] = target: T1, human vasopressin V1b receptor (Homo sapiens, UniProt P47901); test: biochemical; conditions: Ki(h-V1b)* [nM], CHO-K1 cell membranes, displacement of 3H-AVP
T1 sequence (P47901 1-424): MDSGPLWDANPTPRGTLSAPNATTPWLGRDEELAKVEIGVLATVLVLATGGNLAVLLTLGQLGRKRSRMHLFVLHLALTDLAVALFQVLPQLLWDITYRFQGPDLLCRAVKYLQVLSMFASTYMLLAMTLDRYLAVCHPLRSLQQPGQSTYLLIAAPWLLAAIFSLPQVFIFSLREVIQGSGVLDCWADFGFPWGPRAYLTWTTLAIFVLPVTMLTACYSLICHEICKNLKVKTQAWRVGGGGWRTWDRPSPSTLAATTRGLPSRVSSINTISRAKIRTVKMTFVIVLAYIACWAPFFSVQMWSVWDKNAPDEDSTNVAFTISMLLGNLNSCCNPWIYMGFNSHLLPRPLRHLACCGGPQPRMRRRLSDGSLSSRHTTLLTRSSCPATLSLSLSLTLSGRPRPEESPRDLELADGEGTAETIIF

[2] = target: human vasopressin V1a receptor (Homo sapiens, UniProt P37288); test: Vasopressin V1a receptor binding assay; conditions: selectivity for human V1b over human V1a, quotient of binding constants
Sequence of human vasopressin V1a receptor (P37288 whole entry): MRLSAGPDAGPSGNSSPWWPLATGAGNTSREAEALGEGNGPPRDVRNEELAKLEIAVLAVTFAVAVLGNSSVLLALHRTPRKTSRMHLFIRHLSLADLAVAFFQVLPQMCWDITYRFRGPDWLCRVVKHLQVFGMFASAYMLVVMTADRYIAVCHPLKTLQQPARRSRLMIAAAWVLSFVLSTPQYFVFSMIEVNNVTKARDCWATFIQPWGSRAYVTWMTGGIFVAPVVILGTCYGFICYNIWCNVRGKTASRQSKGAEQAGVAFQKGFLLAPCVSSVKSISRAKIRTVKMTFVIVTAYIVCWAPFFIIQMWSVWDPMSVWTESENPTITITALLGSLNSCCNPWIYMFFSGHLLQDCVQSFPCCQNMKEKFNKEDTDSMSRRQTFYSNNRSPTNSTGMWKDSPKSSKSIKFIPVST

Compound	Ki [1]	Ki(h-V1a)/Ki(h-V1b) [2]
CCOc1ncccc1C1(NC(=O)N2CC3(CCNCC3)C2)C(=O)N(S(=O)(=O)c2ccc(OC)cc2OC)c2ccc(C#N)cc21.O=C(O)C(F)(F)F (stereo not shown) [Example 60, N-(5-Cyano-1-(2,4-dimethoxyphenylsulfonyl)-3-(2-ethoxypyridin-3-yl)-2-oxoindolin-3-yl)-2,7-diazaspiro[3.5]nonane-2-carboxamide 2,2,2-trifluoroacetate]	1 to 10 nM	++ (25-75)
CCOc1ncccc1C1(CC(=O)N2CC3(CN(CCN4CCOCC4)C3)C2)C(=O)N(S(=O)(=O)c2ccc(OC)cc2)c2ccc(C#N)cc21 (single isomer, unassigned) [Example 20A, 3-(2-Ethoxy-3-pyridyl)-1-(4-methoxyphenyl)sulfonyl-3-[2-[2-(2-morpholinoethyl)-2,6-diazaspiro[3.3]heptan-6-yl]-2-oxo-ethyl]-2-oxo-indoline-5-carbonitrile]	1 to 10 nM	++ (25-75)
CCOc1ccccc1[C@]1(NC(=O)N2CC3(C2)CN(C2CCN(C(C)C)CC2)C3)C(=O)N(S(=O)(=O)c2ccc(OC)cc2)c2ccc(C#N)cc21 [Example 40, N-[(3S)-5-Cyano-3-(2-ethoxyphenyl)-1-(4-methoxyphenyl)sulfonyl-2-oxo-indolin-3-yl]-2-(1-isopropyl-4-piperidyl)-2,6-diazaspiro[3.3]heptane-6-carboxamide]	1 to 10 nM	+++ (>75)
CCOc1ncccc1[C@]1(NC(=O)N2CC3(CC(OCCN4CCOCC4)C3)C2)C(=O)N(S(=O)(=O)c2ccc(OC)cc2)c2ccc(C#N)cc21 [Example 21A, N-[(3S)-5-Cyano-3-(2-ethoxy-3-pyridyl)-1-(4-methoxyphenyl)sulfonyl-2-oxo-indolin-3-yl]-2-(2-morpholinoethoxy)-6-azaspiro[3.3]heptane-6-carboxamide]	10 to 100 nM	+++ (>75)
CCOc1ncccc1[C@]1(NC(=O)N2CC3(C2)CN(C2CCN(C(C)C)CC2)C3)C(=O)N(S(=O)(=O)c2ccc(C)cc2)c2ccc(C#N)cc21 [Example 25, N-[(3S)-5-Cyano-3-(2-ethoxy-3-pyridyl)-2-oxo-1-(p-tolylsulfonyl)indolin-3-yl]-2-(1-isopropyl-4-piperidyl)-2,6-diazaspiro[3.3]heptane-6-carboxamide]	10 to 100 nM	++ (25-75)
CCOc1ncccc1[C@]1(NC(=O)N2CC3(CN(CCN4CCOCC4)C3)C2)C(=O)N(S(=O)(=O)c2ccc(OC)cc2)c2ccc(C#N)cc21 [Example 1, N-[(3S)-5-Cyano-3-(2-ethoxy-3-pyridyl)-1-(4-methoxyphenyl)sulfonyl-2-oxo-indolin-3-yl]-2-(2-morpholinoethyl)-2,6-diazaspiro[3.3]heptane-6-carboxamide]	1 to 10 nM	+++ (>75)
CCOc1ncccc1[C@]1(NC(=O)N2CC3(CN(CCN4CCOCC4)C3)C2)C(=O)N(S(=O)(=O)c2ccc(F)cc2)c2ccc(C#N)cc21 [Example 8, N-[(3S)-5-Cyano-3-(2-ethoxy-3-pyridyl)-1-(4-fluorophenyl)sulfonyl-2-oxo-indolin-3-yl]-2-(2-morpholinoethyl)-2,6-diazaspiro[3.3]heptane-6-carboxamide]	10 to 100 nM	++ (25-75)
CCOc1ncccc1[C@]1(NC(=O)N2CC3(CN(CCN4CCCCC4)C3)C2)C(=O)N(S(=O)(=O)c2ccc(OC)cc2)c2ccc(C#N)cc21 [Example 13, N-[(3S)-5-Cyano-3-(2-ethoxy-3-pyridyl)-1-(4-methoxyphenyl)sulfonyl-2-oxo-indolin-3-yl]-2-[2-(1-piperidyl)ethyl]-2,6-diazaspiro[3.3]heptane-6-carboxamide]	< 1 nM	++ (25-75)
CCOc1ncccc1[C@]1(NC(=O)C2CC3(C2)CN(C2CCN(C(C)C)CC2)C3)C(=O)N(S(=O)(=O)c2ccc(OC)cc2)c2ccc(C#N)cc21 [Example 45, N-[(3S)-5-Cyano-3-(2-ethoxy-3-pyridyl)-1-(4-methoxyphenyl)sulfonyl-2-oxo-indolin-3-yl]-6-(1-isopropyl-4-piperidyl)-6-azaspiro[3.3]heptane-2-carboxamide]	10 to 100 nM	+ (10-<25)
CCOc1ncccc1[C@]1(NC(=O)N2CC3(CN(CCN4CCOCC4)C3)C2)C(=O)N(S(=O)(=O)c2ccccc2OC)c2ccc(C#N)cc21.O=C(O)C(F)(F)F [Example 11, N-[(3S)-5-Cyano-3-(2-ethoxy-3-pyridyl)-1-(2-methoxyphenyl)sulfonyl-2-oxo-indolin-3-yl]-2-(2-morpholinoethyl)-2,6-diazaspiro[3.3]heptane-6-carboxamide; 2,2,2-trifluoroacetic acid]	1 to 10 nM	+++ (>75)
CCOc1ncccc1C1(NC(=O)N2CC3(CNC3)C2)C(=O)N(S(=O)(=O)c2ccc(OC)cc2OC)c2ccc(C#N)cc21.O=C(O)C(F)(F)F (stereo not shown) [Example 58, N-(5-Cyano-1-(2,4-dimethoxyphenylsulfonyl)-3-(2-ethoxypyridin-3-yl)-2-oxoindolin-3-yl)-2,6-diazaspiro[3.3]heptane-2-carboxamide 2,2,2-trifluoroacetate]	10 to 100 nM	++ (25-75)
CCOc1ncccc1C1(NC(=O)N2CC3(C2)CN(C2CCNCC2)C3)C(=O)N(S(=O)(=O)c2ccc(OC)cc2OC)c2ccc(C#N)cc21.O=C(O)C(F)(F)F (stereo not shown) [Example 59, N-(5-Cyano-1-(2,4-dimethoxyphenylsulfonyl)-3-(2-ethoxypyridin-3-yl)-2-oxoindolin-3-yl)-6-(piperidin-4-yl)-2,6-diazaspiro[3.3]heptane-2-carboxamide 2,2,2-trifluoroacetate]	10 to 100 nM	+++ (>75)
CCOc1ncccc1[C@]1(NC(=O)N2CC3(C2)CN(C2CCN(C)CC2)C3)C(=O)N(S(=O)(=O)c2ccc(OC)cc2)c2ccc(C#N)cc21 [Example 33, N-[(3S)-5-Cyano-3-(2-ethoxy-3-pyridyl)-1-(4-methoxyphenyl)sulfonyl-2-oxo-indolin-3-yl]-2-(1-methyl-4-piperidyl)-2,6-diazaspiro[3.3]heptane-6-carboxamide]	10 to 100 nM	++ (25-75)
CCOc1ccccc1[C@]1(NC(=O)N2CC3(C2)CN(C2CCN(C(C)C)CC2)C3)C(=O)N(S(=O)(=O)c2ccc(C)cc2)c2ccc(C#N)cc21 [Example 41, N-[(3S)-5-Cyano-3-(2-ethoxyphenyl)-2-oxo-1-(p-tolylsulfonyl)indolin-3-yl]-2-(1-isopropyl-4-piperidyl)-2,6-diazaspiro[3.3]heptane-6-carboxamide]	10 to 100 nM	+++ (>75)
CCOc1ncccc1C1(CC(=O)N2CC3(CN(CCN4CCOCC4)C3)C2)C(=O)N(S(=O)(=O)c2ccc(OC)cc2)c2ccc(C#N)cc21 (racemic) [Example 20, 3-(2-Ethoxy-3-pyridyl)-1-(4-methoxyphenyl)sulfonyl-3-[2-[2-(2-morpholinoethyl)-2,6-diazaspiro[3.3]heptan-6-yl]-2-oxo-ethyl]-2-oxo-indoline-5-carbonitrile]	1 to 10 nM	++ (25-75)
CCOc1ncccc1[C@]1(NC(=O)N2CC3(C2)CN(C2CCN(C(C)C)CC2)C3)C(=O)N(S(=O)(=O)c2ccc(C#N)cc2)c2ccc(C#N)cc21 [Example 24, N-[(3S)-5-cyano-1-(4-cyanophenyl)sulfonyl-3-(2-ethoxy-3-pyridyl)-2-oxo-indolin-3-yl]-2-(1-isopropyl-4-piperidyl)-2,6-diazaspiro[3.3]heptane-6-carboxamide]	10 to 100 nM	+++ (>75)
CCOc1ncccc1[C@]1(NC(=O)N2CC3(CN(CCN4CCOCC4)C3)C2)C(=O)N(S(=O)(=O)c2ccc(C#N)cc2)c2ccc(C#N)cc21 [Example 5, N-[(3S)-5-cyano-1-(4-cyanophenyl)sulfonyl-3-(2-ethoxy-3-pyridyl)-2-oxo-indolin-3-yl]-2-(2-morpholinoethyl)-2,6-diazaspiro[3.3]heptane-6-carboxamide]	10 to 100 nM	+++ (>75)
CCOc1ncccc1[C@]1(NC(=O)N2CC3(CN(CCN4CCOCC4)C3)C2)C(=O)N(S(=O)(=O)c2ccc(OC)cc2)c2ccc(C#N)cc21.O=C(O)C(F)(F)F [Example 1B, N-[(3S)-5-cyano-3-(2-ethoxy-3-pyridyl)-1-(4-methoxyphenyl)sulfonyl-2-oxo-indolin-3-yl]-2-(2-morpholinoethyl)-2,6-diazaspiro[3.3]heptane-6-carboxamide; 2,2,2-trifluoroacetic acid]	< 1 nM	+++ (>75)
CCOc1ncccc1[C@]1(NC(=O)N2CC3(CN(CCN4CCOCC4)C3)C2)C(=O)N(S(=O)(=O)c2ccc(F)cc2OC)c2ccc(C#N)cc21 [Example 17, N-[(3S)-5-Cyano-3-(2-ethoxy-3-pyridyl)-1-(4-fluoro-2-methoxy-phenyl)sulfonyl-2-oxo-indolin-3-yl]-2-(2-morpholinoethyl)-2,6-diazaspiro[3.3]heptane-6-carboxamide]	1 to 10 nM	++ (25-75)
CCOc1ncccc1[C@]1(NC(=O)N2CC3(CN(CCN4CCOCC4)C3)C2)C(=O)N(S(=O)(=O)c2ccc(C)cc2)c2ccc(C#N)cc21.O=C(O)C(F)(F)F [Example 10, N-[(3S)-5-Cyano-3-(2-ethoxy-3-pyridyl)-2-oxo-1-(p-tolylsulfonyl)indolin-3-yl]-2-(2-morpholinoethyl)-2,6-diazaspiro[3.3]heptane-6-carboxamide; 2,2,2-trifluoroacetic acid]	1 to 10 nM	++ (25-75)
